Consider 20 compounds from ChEMBL document CHEMBL1139761, “Synthesis and optimization of novel and selective muscarinic M(3) receptor antagonists” (Bioorg Med Chem Lett, 2007).

Each structure is given as a SMILES string.

For test [1], the target named is Muscarinic acetylcholine receptor M3 (Rattus norvegicus, UniProt P08483). Description: Displacement of [3H]N-methylscopolamine from muscarinic M3 receptor in rat submandibular gland. It is filed as tissue-based. For orientation: In a radioligand displacement assay an active substance lowers the binding of a labelled ligand.
Sequence of Muscarinic acetylcholine receptor M3 (P08483 whole entry): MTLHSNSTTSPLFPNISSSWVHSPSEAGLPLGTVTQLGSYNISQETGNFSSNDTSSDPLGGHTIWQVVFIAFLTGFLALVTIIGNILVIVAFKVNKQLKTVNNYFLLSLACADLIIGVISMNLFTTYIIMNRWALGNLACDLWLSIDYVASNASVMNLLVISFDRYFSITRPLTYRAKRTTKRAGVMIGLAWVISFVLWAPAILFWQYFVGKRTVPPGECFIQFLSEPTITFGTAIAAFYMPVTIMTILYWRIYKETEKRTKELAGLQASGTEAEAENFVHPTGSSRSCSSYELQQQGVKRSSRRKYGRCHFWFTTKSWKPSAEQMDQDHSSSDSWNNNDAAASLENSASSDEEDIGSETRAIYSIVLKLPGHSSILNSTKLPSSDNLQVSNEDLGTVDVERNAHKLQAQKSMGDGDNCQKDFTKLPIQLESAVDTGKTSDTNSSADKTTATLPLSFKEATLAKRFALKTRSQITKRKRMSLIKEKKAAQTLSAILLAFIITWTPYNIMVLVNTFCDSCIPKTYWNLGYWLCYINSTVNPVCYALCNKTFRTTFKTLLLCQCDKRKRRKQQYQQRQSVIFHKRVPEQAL
Test [2] concerns the target T1, Muscarinic acetylcholine receptor M2 (Rattus norvegicus, UniProt P10980).
T1 sequence (P10980 whole entry): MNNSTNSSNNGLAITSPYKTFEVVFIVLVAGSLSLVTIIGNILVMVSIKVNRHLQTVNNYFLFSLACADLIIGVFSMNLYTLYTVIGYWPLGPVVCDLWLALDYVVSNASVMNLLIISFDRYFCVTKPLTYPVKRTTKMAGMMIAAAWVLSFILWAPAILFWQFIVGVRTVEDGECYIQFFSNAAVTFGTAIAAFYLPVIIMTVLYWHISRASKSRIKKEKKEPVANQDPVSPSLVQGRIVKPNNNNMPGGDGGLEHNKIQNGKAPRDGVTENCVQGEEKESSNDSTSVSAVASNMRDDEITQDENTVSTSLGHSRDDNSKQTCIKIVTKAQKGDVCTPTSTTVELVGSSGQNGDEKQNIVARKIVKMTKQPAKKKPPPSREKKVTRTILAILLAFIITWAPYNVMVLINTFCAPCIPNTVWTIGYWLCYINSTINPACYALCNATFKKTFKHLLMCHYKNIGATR
Description: Displacement of [3H]N-methylscopolamine from muscarinic M2 receptor in rat heart.

Take `O=C(N[C@H]1[C@@H]2CN(CCCc3ccccc3)C[C@@H]21)C(O)(c1ccccc1)C1CCCC1` (some centres undefined): the figures for the Ki in test [1] and in test [2] were 776 nM and 2630 nM, respectively.
The matching figures for `O=C(N[C@H]1[C@@H]2CN(Cc3ccccc3)C[C@@H]21)C(O)(c1ccccc1)C1CCCCCC1` (some centres undefined): 6.8 nM and 349 nM.
Take `O=C(N[C@H]1[C@@H]2CN(Cc3ccccc3)C[C@@H]21)C(O)c1ccccc1` (some centres undefined): the Ki in test [1] and in test [2] was over 1000 nM throughout.
With `CC(c1ccccc1)N1C[C@@H]2[C@H](C1)[C@H]2NC(=O)C(O)(c1ccccc1)C1CCCC1` (some centres undefined), the Ki (usually a dissociation constant, usually derived from enzyme kinetics or from competition with a known ligand) in test [1] stood at 25.1 nM; in test [2] it was 630 nM.
Taken in the same sequence, the figures for `CC(c1ccccc1)N1C[C@@H]2[C@H](C1)[C@H]2NC(=O)C(O)(c1ccccc1)C1CCCCCC1` (some centres undefined) were 1.8 nM and 39 nM.
The matching figures for `O=C(N[C@H]1[C@@H]2CN(Cc3cccs3)C[C@@H]21)C(O)(c1ccccc1)C1CCCC1` (some centres undefined): 524 nM and 3980 nM.
Taken in the same sequence, the figures for `Cc1ccc(C(C)N2C[C@@H]3[C@H](C2)[C@H]3NC(=O)C(O)(c2ccccc2)C2CCCC2)cc1` (some centres undefined) were 58.9 nM and 1230 nM.
`O=C(N[C@H]1[C@@H]2CN(CCc3ccc(Cl)cc3)C[C@@H]21)C(O)(c1ccccc1)C1CCCC1` (some centres undefined): the Ki in test [1] came to 31.3 nM; in test [2], 298 nM.
The matching figures for `COC(=O)c1ccc(CCN2C[C@@H]3[C@H](C2)[C@H]3NC(=O)C(O)(c2ccccc2)C2CCCC2)cc1` (some centres undefined): 43.6 nM and 537 nM.
The matching figures for `O=C(N[C@H]1[C@@H]2CN(CCc3ccc4c(c3)OCO4)C[C@@H]21)C(O)(c1ccccc1)C1CCCC1` (some centres undefined): 20 nM and 277 nM.
Taken in the same sequence, the figures for `O=C(N[C@H]1[C@@H]2CN(Cc3ccc4ccccc4c3)C[C@@H]21)C(O)(c1ccccc1)C1CCCC1` (some centres undefined) were 42 nM and 778 nM.
Regarding `O=C(N[C@H]1[C@@H]2CN(CCc3ccccc3)C[C@@H]21)C(O)(c1ccccc1)C1CCCC1` (some centres undefined), the Ki in test [1] is 9.3 nM; in test [2] it was 335 nM.
As for `CC(C)=CCCN1C[C@@H]2[C@H](C1)[C@H]2NC(=O)C(O)(c1ccccc1)C1CCCC1` (some centres undefined), the Ki in test [1] amounted to 33 nM; in test [2] it was 1370 nM.
Taken in the same sequence, the figures for `CC(C)=CCCN1C[C@@H]2[C@H](C1)[C@H]2NC(=O)[C@@](O)(c1ccccc1)C1CCCC1` were 71 nM and 1140 nM.
The matching figures for `O=C(N[C@H]1[C@@H]2CN(Cc3ccccc3)C[C@@H]21)C(O)(c1ccccc1)C1CCCC1` (some centres undefined): 96 nM and 1420 nM.
Taken in the same sequence, the figures for `O=C(N[C@H]1[C@@H]2CN(CCc3ccc4c(c3)OCO4)C[C@@H]21)[C@](O)(c1ccccc1)C1CCCC1` were 12.3 nM and 646 nM.
On to `O=C(N[C@H]1[C@@H]2CN(Cc3ccccc3)C[C@@H]21)C(O)(c1ccccc1)C1CCCCC1` (some centres undefined), for which the Ki in test [1] came to 31.7 nM; in test [2], 943 nM.
Taken in the same sequence, the figures for `Cc1ccc(CCN2C[C@@H]3[C@H](C2)[C@H]3NC(=O)C(O)(c2ccccc2)C2CCCC2)cc1C` (some centres undefined) were 43.6 nM and 812 nM.
Taken in the same sequence, the figures for `CC(c1ccccc1)N1C[C@@H]2[C@H](C1)[C@H]2NC(=O)C(O)(c1ccccc1)C1CCCCC1` (some centres undefined) were 5.9 nM and 154 nM.
Turning to `NC(=O)C(c1ccccc1)(c1ccccc1)[C@@H]1CCN(CCc2ccc3c(c2)CCO3)C1` [DARIFENACIN], the Ki in test [2] was 63 nM.
